# Reference: patent publication US10344060B2 (priority 2013, dated 2019)
# Molecular target: hNav1.7 (Homo sapiens, UniProt Q15858)
# Assay: cell-based
# Assay type: cell-based
# Conditions: Table 12; PatchXpress, tonic block; read-out: PX hNav1.7 Tonic IC50
# hNav1.7, sequence (Q15858 whole entry): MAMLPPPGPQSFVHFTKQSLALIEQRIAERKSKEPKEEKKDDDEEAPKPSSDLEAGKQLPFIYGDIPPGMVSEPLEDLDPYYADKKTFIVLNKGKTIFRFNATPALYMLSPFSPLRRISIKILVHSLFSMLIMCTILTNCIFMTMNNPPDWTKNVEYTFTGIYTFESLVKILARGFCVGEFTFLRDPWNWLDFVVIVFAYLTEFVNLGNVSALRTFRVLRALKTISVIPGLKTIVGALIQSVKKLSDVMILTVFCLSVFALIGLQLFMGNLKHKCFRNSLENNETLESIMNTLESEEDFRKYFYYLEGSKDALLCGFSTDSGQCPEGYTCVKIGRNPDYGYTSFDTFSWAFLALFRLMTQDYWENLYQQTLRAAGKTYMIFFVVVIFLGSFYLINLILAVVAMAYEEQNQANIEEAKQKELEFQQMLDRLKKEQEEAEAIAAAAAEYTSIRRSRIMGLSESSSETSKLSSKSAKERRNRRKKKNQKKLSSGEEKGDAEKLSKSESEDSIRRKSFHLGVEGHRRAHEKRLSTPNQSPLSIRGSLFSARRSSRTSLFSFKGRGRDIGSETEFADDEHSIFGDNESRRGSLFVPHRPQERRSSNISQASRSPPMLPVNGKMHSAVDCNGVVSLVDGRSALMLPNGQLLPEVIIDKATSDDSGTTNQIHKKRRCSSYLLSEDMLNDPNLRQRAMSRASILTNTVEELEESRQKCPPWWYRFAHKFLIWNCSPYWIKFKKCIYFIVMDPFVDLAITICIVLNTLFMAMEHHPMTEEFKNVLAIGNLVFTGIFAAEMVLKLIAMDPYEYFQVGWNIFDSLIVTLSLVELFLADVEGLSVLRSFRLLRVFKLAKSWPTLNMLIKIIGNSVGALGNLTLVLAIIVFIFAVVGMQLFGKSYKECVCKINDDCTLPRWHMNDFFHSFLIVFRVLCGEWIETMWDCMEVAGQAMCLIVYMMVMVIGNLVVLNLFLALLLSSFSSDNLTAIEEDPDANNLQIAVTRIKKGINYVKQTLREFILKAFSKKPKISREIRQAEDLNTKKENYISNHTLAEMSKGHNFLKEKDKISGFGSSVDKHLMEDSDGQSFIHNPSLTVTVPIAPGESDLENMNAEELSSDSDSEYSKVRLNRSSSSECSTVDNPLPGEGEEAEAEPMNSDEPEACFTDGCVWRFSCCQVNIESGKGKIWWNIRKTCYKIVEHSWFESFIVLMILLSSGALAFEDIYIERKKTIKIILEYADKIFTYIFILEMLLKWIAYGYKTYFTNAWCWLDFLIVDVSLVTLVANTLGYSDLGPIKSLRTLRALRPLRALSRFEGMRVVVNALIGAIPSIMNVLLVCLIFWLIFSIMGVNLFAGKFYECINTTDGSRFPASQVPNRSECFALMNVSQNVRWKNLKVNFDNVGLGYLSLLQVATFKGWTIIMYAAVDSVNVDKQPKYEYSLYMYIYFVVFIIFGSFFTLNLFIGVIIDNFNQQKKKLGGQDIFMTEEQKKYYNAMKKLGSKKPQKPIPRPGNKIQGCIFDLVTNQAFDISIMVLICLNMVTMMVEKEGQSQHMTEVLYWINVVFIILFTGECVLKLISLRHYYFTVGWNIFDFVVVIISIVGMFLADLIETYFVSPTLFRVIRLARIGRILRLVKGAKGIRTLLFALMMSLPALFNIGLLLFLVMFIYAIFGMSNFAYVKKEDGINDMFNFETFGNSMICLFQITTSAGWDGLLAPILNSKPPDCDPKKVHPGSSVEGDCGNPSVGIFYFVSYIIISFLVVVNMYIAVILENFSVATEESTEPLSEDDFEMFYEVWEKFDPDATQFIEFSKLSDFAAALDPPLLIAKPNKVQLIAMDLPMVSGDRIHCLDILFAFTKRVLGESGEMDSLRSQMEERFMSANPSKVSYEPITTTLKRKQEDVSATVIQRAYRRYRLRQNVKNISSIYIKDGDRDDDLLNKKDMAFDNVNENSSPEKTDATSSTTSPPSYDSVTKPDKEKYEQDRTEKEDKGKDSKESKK
row,Structure (SMILES),IC50 [nM]
1,C#CC[C@H](N)C(=O)N[C@@H](Cc1ccc(O)cc1)C(=O)N[C@H]1CSSC[C@@H]2NC(=O)[C@@H]3CSSC[C@@H](C(=O)N[C@@H](CCCNC(=N)N)C(=O)N[C@@H](CCCCN)C(=O)N[C@@H](CCC(=O)O)C(=O)N[C@H](C(N)=O)[C@@H](C)CC)NC(=O)[C@H](Cc4c[nH]c5ccccc45)NC(=O)[C@H](CC(C)C)NC(=O)[C@H](CCCCN)NC(=O)[C@H](CSSC[C@H](NC(=O)[C@H]([C@@H](C)O)NC(=O)[C@H](Cc4c[nH]c5ccccc45)NC(=O)[C@H](CCCC)NC(=O)[C@H](Cc4cccc5ccccc45)NC(=O)[C@H](CCCCN)NC(=O)[C@H](CCC(N)=O)NC1=O)C(=O)N[C@@H](CC(=O)O)C(=O)N[C@@H](CO)C(=O)N[C@@H](CCCCN)C(=O)N[C@@H](CCCNC(=N)N)C(=O)N[C@@H](C)C(=O)N3)NC(=O)[C@H](CCCNC(=N)N)NC(=O)[C@H](CC(C)C)NC(=O)CNC(=O)[C@H](CCC(=O)O)NC2=O [compound 841],70.9
2,C#CC[C@H](N)C(=O)N[C@@H](Cc1ccc(O)cc1)C(=O)N[C@H]1CSSC[C@@H]2NC(=O)[C@@H]3CSSC[C@@H](C(=O)N[C@@H](CCCNC(=N)N)C(=O)N[C@@H](CCCCN)C(=O)N[C@@H](CCC(=O)O)C(=O)N[C@H](C(N)=O)[C@@H](C)CC)NC(=O)[C@H](Cc4c[nH]c5ccccc45)NC(=O)[C@H](CC(C)C)NC(=O)[C@H](CCCCN)NC(=O)[C@H](CSSC[C@H](NC(=O)[C@H]([C@@H](C)O)NC(=O)[C@H](Cc4c[nH]c5ccccc45)NC(=O)[C@H](CCCC)NC(=O)[C@H](Cc4ccc5ccccc5c4)NC(=O)[C@H](CCCCN)NC(=O)[C@H](CCC(N)=O)NC1=O)C(=O)N[C@@H](CC(=O)O)C(=O)N[C@@H](CO)C(=O)N[C@@H](CCCCN)C(=O)N[C@@H](CCCNC(=N)N)C(=O)N[C@@H](C)C(=O)N3)NC(=O)[C@H](CCCNC(=N)N)NC(=O)[C@H](CC(C)C)NC(=O)CNC(=O)[C@H](CCC(=O)O)NC2=O [compound 842],21.7
3,C#CC[C@H](N)C(=O)N[C@@H](Cc1ccc(O)cc1)C(=O)N[C@H]1CSSC[C@@H]2NC(=O)[C@@H]3CSSC[C@@H](C(=O)N[C@@H](CCCNC(=N)N)C(=O)N[C@@H](CCCCN)C(=O)N[C@@H](CCC(=O)O)C(=O)N[C@H](C(N)=O)[C@@H](C)CC)NC(=O)[C@H](Cc4c[nH]c5ccccc45)NC(=O)[C@H](CC(C)C)NC(=O)[C@H](CCCCN)NC(=O)[C@H](CSSC[C@H](NC(=O)[C@H]([C@@H](C)O)NC(=O)[C@H](Cc4c[nH]c5ccccc45)NC(=O)[C@H](CCCC)NC(=O)[C@H](Cc4c[nH]c5ccc(Br)cc45)NC(=O)[C@H](CCCCN)NC(=O)[C@H](CCC(N)=O)NC1=O)C(=O)N[C@@H](CC(=O)O)C(=O)N[C@@H](CO)C(=O)N[C@@H](CCCCN)C(=O)N[C@@H](CCCNC(=N)N)C(=O)N[C@@H](C)C(=O)N3)NC(=O)[C@H](CCCNC(=N)N)NC(=O)[C@H](CC(C)C)NC(=O)CNC(=O)[C@H](CCC(=O)O)NC2=O [compound 845],53.5
4,C#CC[C@H](N)C(=O)N[C@@H](Cc1ccc(O)cc1)C(=O)N[C@H]1CSSC[C@@H]2NC(=O)[C@@H]3CSSC[C@@H](C(=O)N[C@@H](CCCNC(=N)N)C(=O)N[C@@H](CCCCN)C(=O)N[C@@H](CCC(=O)O)C(=O)N[C@H](C(N)=O)[C@@H](C)CC)NC(=O)[C@H](Cc4c[nH]c5ccccc45)NC(=O)[C@H](CC(C)C)NC(=O)[C@H](CCCCN)NC(=O)[C@H](CSSC[C@H](NC(=O)[C@H]([C@@H](C)O)NC(=O)[C@H](Cc4cccc5ccccc45)NC(=O)[C@H](CCCC)NC(=O)[C@H](Cc4c[nH]c5ccccc45)NC(=O)[C@H](CCCCN)NC(=O)[C@H](CCC(N)=O)NC1=O)C(=O)N[C@@H](CC(=O)O)C(=O)N[C@@H](CO)C(=O)N[C@@H](CCCCN)C(=O)N[C@@H](CCCNC(=N)N)C(=O)N[C@@H](C)C(=O)N3)NC(=O)[C@H](CCCNC(=N)N)NC(=O)[C@H](CC(C)C)NC(=O)CNC(=O)[C@H](CCC(=O)O)NC2=O [compound 846],825
5,C#CC[C@H](N)C(=O)N[C@@H](Cc1ccc(O)cc1)C(=O)N[C@H]1CSSC[C@@H]2NC(=O)[C@@H]3CSSC[C@@H](C(=O)N[C@@H](CCCNC(=N)N)C(=O)N[C@@H](CCCCN)C(=O)N[C@@H](CCC(=O)O)C(=O)N[C@H](C(N)=O)[C@@H](C)CC)NC(=O)[C@H](Cc4c[nH]c5ccccc45)NC(=O)[C@H](CC(C)C)NC(=O)[C@H](CCCCN)NC(=O)[C@H](CSSC[C@H](NC(=O)[C@H]([C@@H](C)O)NC(=O)[C@H](Cc4ccc5ccccc5c4)NC(=O)[C@H](CCCC)NC(=O)[C@H](Cc4c[nH]c5ccccc45)NC(=O)[C@H](CCCCN)NC(=O)[C@H](CCC(N)=O)NC1=O)C(=O)N[C@@H](CC(=O)O)C(=O)N[C@@H](CO)C(=O)N[C@@H](CCCCN)C(=O)N[C@@H](CCCNC(=N)N)C(=O)N[C@@H](C)C(=O)N3)NC(=O)[C@H](CCCNC(=N)N)NC(=O)[C@H](CC(C)C)NC(=O)CNC(=O)[C@H](CCC(=O)O)NC2=O [compound 847],470
6,C#CC[C@H](N)C(=O)N[C@@H](Cc1ccc(O)cc1)C(=O)N[C@H]1CSSC[C@@H]2NC(=O)[C@@H]3CSSC[C@@H](C(=O)N[C@@H](CCCNC(=N)N)C(=O)N[C@@H](CCCCN)C(=O)N[C@@H](CCC(=O)O)C(=O)N[C@H](C(N)=O)[C@@H](C)CC)NC(=O)[C@H](Cc4c[nH]c5ccccc45)NC(=O)[C@H](CC(C)C)NC(=O)[C@H](CCCCN)NC(=O)[C@H](CSSC[C@H](NC(=O)[C@H]([C@@H](C)O)NC(=O)[C@H](Cc4c[nH]c5ccc(Br)cc45)NC(=O)[C@H](CCCC)NC(=O)[C@H](Cc4c[nH]c5ccccc45)NC(=O)[C@H](CCCCN)NC(=O)[C@H](CCC(N)=O)NC1=O)C(=O)N[C@@H](CC(=O)O)C(=O)N[C@@H](CO)C(=O)N[C@@H](CCCCN)C(=O)N[C@@H](CCCNC(=N)N)C(=O)N[C@@H](C)C(=O)N3)NC(=O)[C@H](CCCNC(=N)N)NC(=O)[C@H](CC(C)C)NC(=O)CNC(=O)[C@H](CCC(=O)O)NC2=O [compound 850],540
7,C#CC[C@H](N)C(=O)N[C@@H](Cc1ccc(O)cc1)C(=O)N[C@H]1CSSC[C@@H]2NC(=O)[C@@H]3CSSC[C@@H](C(=O)N[C@@H](CCCNC(=N)N)C(=O)N[C@@H](CCCCN)C(=O)N[C@@H](CCC(=O)O)C(=O)N[C@H](C(N)=O)[C@@H](C)CC)NC(=O)[C@H](Cc4cccc5ccccc45)NC(=O)[C@H](CC(C)C)NC(=O)[C@H](CCCCN)NC(=O)[C@H](CSSC[C@H](NC(=O)[C@H]([C@@H](C)O)NC(=O)[C@H](Cc4c[nH]c5ccccc45)NC(=O)[C@H](CCCC)NC(=O)[C@H](Cc4c[nH]c5ccccc45)NC(=O)[C@H](CCCCN)NC(=O)[C@H](CCC(N)=O)NC1=O)C(=O)N[C@@H](CC(=O)O)C(=O)N[C@@H](CO)C(=O)N[C@@H](CCCCN)C(=O)N[C@@H](CCCNC(=N)N)C(=O)N[C@@H](C)C(=O)N3)NC(=O)[C@H](CCCNC(=N)N)NC(=O)[C@H](CC(C)C)NC(=O)CNC(=O)[C@H](CCC(=O)O)NC2=O [compound 851],32
8,C#CC[C@H](N)C(=O)N[C@@H](Cc1ccc(O)cc1)C(=O)N[C@H]1CSSC[C@@H]2NC(=O)[C@@H]3CSSC[C@@H](C(=O)N[C@@H](CCCNC(=N)N)C(=O)N[C@@H](CCCCN)C(=O)N[C@@H](CCC(=O)O)C(=O)N[C@H](C(N)=O)[C@@H](C)CC)NC(=O)[C@H](Cc4ccc5ccccc5c4)NC(=O)[C@H](CC(C)C)NC(=O)[C@H](CCCCN)NC(=O)[C@H](CSSC[C@H](NC(=O)[C@H]([C@@H](C)O)NC(=O)[C@H](Cc4c[nH]c5ccccc45)NC(=O)[C@H](CCCC)NC(=O)[C@H](Cc4c[nH]c5ccccc45)NC(=O)[C@H](CCCCN)NC(=O)[C@H](CCC(N)=O)NC1=O)C(=O)N[C@@H](CC(=O)O)C(=O)N[C@@H](CO)C(=O)N[C@@H](CCCCN)C(=O)N[C@@H](CCCNC(=N)N)C(=O)N[C@@H](C)C(=O)N3)NC(=O)[C@H](CCCNC(=N)N)NC(=O)[C@H](CC(C)C)NC(=O)CNC(=O)[C@H](CCC(=O)O)NC2=O [compound 852],182
9,C#CC[C@H](N)C(=O)N[C@@H](Cc1ccc(O)cc1)C(=O)N[C@H]1CSSC[C@@H]2NC(=O)[C@@H]3CSSC[C@@H](C(=O)N[C@@H](CCCNC(=N)N)C(=O)N[C@@H](CCCCN)C(=O)N[C@@H](CCC(=O)O)C(=O)N[C@H](C(N)=O)[C@@H](C)CC)NC(=O)[C@H](Cc4ccccc4)NC(=O)[C@H](CC(C)C)NC(=O)[C@H](CCCCN)NC(=O)[C@H](CSSC[C@H](NC(=O)[C@H]([C@@H](C)O)NC(=O)[C@H](Cc4c[nH]c5ccccc45)NC(=O)[C@H](CCCC)NC(=O)[C@H](Cc4c[nH]c5ccccc45)NC(=O)[C@H](CCCCN)NC(=O)[C@H](CCC(N)=O)NC1=O)C(=O)N[C@@H](CC(=O)O)C(=O)N[C@@H](CO)C(=O)N[C@@H](CCCCN)C(=O)N[C@@H](CCCNC(=N)N)C(=O)N[C@@H](C)C(=O)N3)NC(=O)[C@H](CCCNC(=N)N)NC(=O)[C@H](CC(C)C)NC(=O)CNC(=O)[C@H](CCC(=O)O)NC2=O [compound 853],15.3
10,C#CC[C@H](N)C(=O)N[C@@H](Cc1ccc(O)cc1)C(=O)N[C@H]1CSSC[C@@H]2NC(=O)[C@@H]3CSSC[C@@H](C(=O)N[C@@H](CCCNC(=N)N)C(=O)N[C@@H](CCCCN)C(=O)N[C@@H](CCC(=O)O)C(=O)N[C@H](C(N)=O)[C@@H](C)CC)NC(=O)[C@H](Cc4c[nH]c5ccccc45)NC(=O)[C@H](CCC)NC(=O)[C@H](CCCCN)NC(=O)[C@H](CSSC[C@H](NC(=O)[C@H]([C@@H](C)O)NC(=O)[C@H](Cc4c[nH]c5ccccc45)NC(=O)[C@H](CCCC)NC(=O)[C@H](Cc4c[nH]c5ccccc45)NC(=O)[C@H](CCCCN)NC(=O)[C@H](CCC(N)=O)NC1=O)C(=O)N[C@@H](CC(=O)O)C(=O)N[C@@H](CO)C(=O)N[C@@H](CCCCN)C(=O)N[C@@H](CCCNC(=N)N)C(=O)N[C@@H](C)C(=O)N3)NC(=O)[C@H](CCCNC(=N)N)NC(=O)[C@H](CC(C)C)NC(=O)CNC(=O)[C@H](CCC(=O)O)NC2=O [compound 857],3.03
